Laboratory results from ChEMBL document CHEMBL4002573, “New insights into the SAR and drug combination synergy of 2-(quinolin-4-yloxy)acetamides against Mycobacterium tuberculosis” (Eur J Med Chem, 2017).
Values after ≈ are worked out from the molar mass of the structure shown.

What was measured:
[1] = tested on: Mycobacterium tuberculosis; test: microbe, parasite or virus in culture; conditions: H37Rv, 168 h
Description: Antimycobacterial activity against Mycobacterium tuberculosis H37Rv after 7 days by resazurin reduction microplate assay

[2] = tested on: Mycobacterium tuberculosis; test: microbe, parasite or virus in culture; conditions: PE-003, 168 h
Description: Antimycobacterial activity against Mycobacterium tuberculosis PE-003 clinical isolate after 7 days by resazurin reduction microplate assay

[3] = tested on: Mycobacterium tuberculosis; test: microbe, parasite or virus in culture; conditions: CDCT-4 (1105/09), 168 h
Description: Antimycobacterial activity against Mycobacterium tuberculosis CDCT-4 (1105/09) clinical isolate after 7 days by resazurin reduction microplate assay

[4] = Thermodynamic solubility of the compound in 0.1N HCl at pH 1.5 after 24 hrs by HPLC method; format: physicochemical; conditions: read-out: Therm_solubility
[5] = Half life in human liver S9 fraction at 2 uM by HPLC-MS/MS analysis; format: ADME, tissue-based
[6] = Cytotoxicity against African green monkey Vero cells assessed as viability at 10 uM after 72 hrs by MTT assay relative to control; format: cell-based; conditions: chlorocebus sabaeus, read-out: Activity
[7] = Cytotoxicity against mouse RAW264.7 cells assessed as viability at 10 uM after 72 hrs by MTT assay relative to control; format: cell-based; conditions: read-out: Activity
[8] = Cytotoxicity against human HaCaT cells assessed as viability at 10 uM after 72 hrs by MTT assay relative to control; format: cell-based; conditions: read-out: Activity
[9] = Intrinsic clearance in human liver S9 fraction at 2 uM by HPLC-MS/MS analysis; format: ADME, tissue-based
[10] = Thermodynamic solubility of the compound in acetate buffer at pH 4 after 24 hrs by HPLC method; format: physicochemical; conditions: read-out: Therm_solubility
[11] = Kinetic solubility in PBS at pH 7.4; format: physicochemical; conditions: read-out: Kinetic_solubility
[12] = Cytotoxicity against human HepG2 cells assessed as viability at 10 uM after 72 hrs by MTT assay relative to control; format: cell-based; conditions: read-out: Activity
[13] = Kinetic solubility in water at pH 5.8; format: physicochemical; conditions: read-out: Kinetic_solubility
[14] = tested on: Mycobacterium tuberculosis; test: Bactericidal activity against Mycobacterium tuberculosis H37Rv infected in mouse RAW264.7 cells assessed as bacterial colony formation at 5 uM after 5 days (reference value: 4.1 to 4.73 log10CU); format: functional
[15] = Cytotoxicity against mouse N9 cells assessed as viability at 10 uM after 72 hrs by MTT assay relative to control; format: cell-based; conditions: read-out: Activity
[16] = Permeability of the compound at 1 uM […] by PAMPA; format: physicochemical; conditions: read-out: permeability

Structure (SMILES): COc1ccccc1NC(=O)COc1cc(C)nc2ccc(C(F)(F)F)cc12
- MIC [1]: > 25.6 µM

Structure (SMILES): COc1c(N2C[C@@H]3CCCN[C@@H]3C2)c(F)cc2c(=O)c(C(=O)O)cn(C3CC3)c12 [MOXIFLOXACIN]
- MIC [1]: 0.075 µg/mL

Structure (SMILES): COc1ccccc1NC(=O)COc1cc(C)nc2ccc(F)cc12
- MIC [1]: 14.7 µM

Structure (SMILES): COc1ccc2nc(C)cc(OCC(=O)N(c3ccccc3)c3ccccc3)c2c1
- MIC [1]: > 25.1 µM

Structure (SMILES): CCc1cc(C(N)=S)ccn1 [ETHIONAMIDE]
- MIC [2]: 61200 nM (≈ 10.2 µg/mL)
- MIC [1]: 2.5 µg/mL
- MIC [3]: 11.3 µM (≈ 1.88 µg/mL)

Structure (SMILES): COc1ccc2nc(C)cc(NCC(=O)Nc3ccc4ccccc4c3)c2c1
- MIC [1]: 6.73 µM

Structure (SMILES): CCOc1ccc2nc(C)cc(OCC(=O)Nc3ccccc3OC)c2c1
- MIC [1]: 1.75 µM

Structure (SMILES): COc1ccc2nc(C)cc(OCC(=O)Nc3ccc4c(c3)CCCC4)c2c1
- solubility thermodynamic at 24 h [4]: 90 µM (≈ 33.9 µg/mL)
- half-life at 2 µM [5]: 16.2 min
- viability at 72 h, 10 µM [6]: 94%
- viability at 72 h, 10 µM [7]: 82%
- viability at 72 h, 10 µM [8]: 95%
- CLhep predicted at 2 µM [9]: 15.6 mL/min/kg
- solubility thermodynamic at 24 h [10]: 30 µM (≈ 11.3 µg/mL)
- solubility kinetic [11]: 1.2 µM (≈ 0.452 µg/mL)
- viability at 72 h, 10 µM [12]: 85%
- solubility kinetic [13]: 6.6 µM (≈ 2.48 µg/mL)
- MIC [2]: 8 nM (≈ 0.00301 µg/mL)
- Activity [14]: 3.33 log10CFU
- MIC [1]: 0.05 µM
- MIC [3]: 0.11 µM (≈ 0.0414 µg/mL)
- viability at 72 h, 10 µM [15]: 103%

Structure (SMILES): COc1ccc2nc(C(C)C)cc(OCC(=O)Nc3ccccc3OC)c2c1
- MIC [1]: > 26.3 µM

Structure (SMILES): COc1ccc2nc(C)cc(OCC(=O)Nc3ccc4c(c3)CCC4)c2c1
- solubility thermodynamic at 24 h [4]: 240 µM (≈ 87 µg/mL)
- half-life at 2 µM [5]: 11.7 min
- viability at 72 h, 10 µM [6]: 97%
- viability at 72 h, 10 µM [7]: 88%
- Papp at 1 µM [16]: 13.1 ×10⁻⁶ cm/s
- viability at 72 h, 10 µM [8]: 99%
- CLhep predicted at 2 µM [9]: 16.9 mL/min/kg
- solubility thermodynamic at 24 h [10]: 120 µM (≈ 43.5 µg/mL)
- solubility kinetic [11]: 2.8 µM (≈ 1.01 µg/mL)
- viability at 72 h, 10 µM [12]: 95%
- solubility kinetic [13]: 2.8 µM (≈ 1.01 µg/mL)
- MIC [2]: 5 nM (≈ 0.00181 µg/mL)
- Activity [14]: 3.54 log10CFU
- MIC [1]: 0.05 µM
- MIC [3]: < 0.05 µM
- viability at 72 h, 10 µM [15]: 111%

Structure (SMILES): COc1ccccc1NC(=O)COc1cc(C)nc2ccc(Br)cc12
- MIC [1]: 0.78 µM

Structure (SMILES): COc1ccc2nc(C)cc(OCC(=O)Nc3ccc(C)c(C)c3)c2c1
- solubility thermodynamic at 24 h [4]: 80 µM (≈ 28 µg/mL)
- half-life at 2 µM [5]: 14.2 min
- viability at 72 h, 10 µM [6]: 85%
- viability at 72 h, 10 µM [7]: 88%
- Papp at 1 µM [16]: 5.9 ×10⁻⁶ cm/s
- viability at 72 h, 10 µM [8]: 94%
- CLhep predicted at 2 µM [9]: 16.2 mL/min/kg
- solubility thermodynamic at 24 h [10]: 410 µM (≈ 144 µg/mL)
- solubility kinetic [11]: 10.7 µM (≈ 3.75 µg/mL)
- viability at 72 h, 10 µM [12]: 71%
- solubility kinetic [13]: 10.4 µM (≈ 3.64 µg/mL)
- MIC [2]: 40 nM (≈ 0.014 µg/mL)
- Activity [14]: 3.35 log10CFU
- MIC [1]: 0.11 µM
- MIC [3]: 0.11 µM (≈ 0.0385 µg/mL)
- viability at 72 h, 10 µM [15]: 105%

Structure (SMILES): COc1ccc2nc(C)cc(OCc3ccc4ccccc4c3)c2c1
- MIC [1]: 1.9 µM

Structure (SMILES): CCCCc1ccc(NC(=O)COc2cc(C)nc3ccc(OC)cc23)cc1
- solubility thermodynamic at 24 h [4]: 240 µM (≈ 90.8 µg/mL)
- half-life at 2 µM [5]: 13.7 min
- viability at 72 h, 10 µM [6]: 90%
- viability at 72 h, 10 µM [7]: 91%
- viability at 72 h, 10 µM [8]: 105%
- CLhep predicted at 2 µM [9]: 16.3 mL/min/kg
- solubility thermodynamic at 24 h [10]: 50 µM (≈ 18.9 µg/mL)
- solubility kinetic [11]: 2.3 µM (≈ 0.87 µg/mL)
- viability at 72 h, 10 µM [12]: 78%
- solubility kinetic [13]: 2.2 µM (≈ 0.833 µg/mL)
- MIC [2]: 8 nM (≈ 0.00303 µg/mL)
- Activity [14]: 3.05 log10CFU
- MIC [1]: 0.1 µM
- MIC [3]: < 0.05 µM
- viability at 72 h, 10 µM [15]: 107%

Structure (SMILES): COc1ccccc1NC(=O)COc1cc(C)nc2ccc(Cl)cc12
- MIC [1]: 1.75 µM

Structure (SMILES): COc1ccc2nc(C)cc(OCC(=O)c3ccc4ccccc4c3)c2c1
- MIC [1]: 1.75 µM
